Patent US11111237B2, “Bicyclic compound and use thereof” (SK BIOPHARMACEUTICALS CO., LTD., priority 2019, dated 2021)
pIC50: −log10 of the molar value. Counter-ions that a name gives are not always drawn.

Molecular target: PRMT5-MEP50 enzyme complex (Homo sapiens (Human), UniProt O14744)
Assay: PRMT5 enzyme activity in vitro assay (methylation of histone H4R3, ELISA absorbance at 450 nm)
Type: biochemical
Conditions: SAM, histone H4 peptide, room temperature 2 hours, 8 points from 10 μM to 0.128 nM
In short: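 Human PRMT5-MEP50 was prepared at 5 μg/mL with SAM at 2 μM and reacted 2 h at room temperature on plate-coated histone H4 (1-20) peptide. An 8-point 1:5 compound series ran from 10 μM to 0.128 nM. H4R3 methylation was detected by antibody/HRP ELISA at 450 nm to give IC50.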

Sequence of PRMT5-MEP50 enzyme complex (O14744 2-637): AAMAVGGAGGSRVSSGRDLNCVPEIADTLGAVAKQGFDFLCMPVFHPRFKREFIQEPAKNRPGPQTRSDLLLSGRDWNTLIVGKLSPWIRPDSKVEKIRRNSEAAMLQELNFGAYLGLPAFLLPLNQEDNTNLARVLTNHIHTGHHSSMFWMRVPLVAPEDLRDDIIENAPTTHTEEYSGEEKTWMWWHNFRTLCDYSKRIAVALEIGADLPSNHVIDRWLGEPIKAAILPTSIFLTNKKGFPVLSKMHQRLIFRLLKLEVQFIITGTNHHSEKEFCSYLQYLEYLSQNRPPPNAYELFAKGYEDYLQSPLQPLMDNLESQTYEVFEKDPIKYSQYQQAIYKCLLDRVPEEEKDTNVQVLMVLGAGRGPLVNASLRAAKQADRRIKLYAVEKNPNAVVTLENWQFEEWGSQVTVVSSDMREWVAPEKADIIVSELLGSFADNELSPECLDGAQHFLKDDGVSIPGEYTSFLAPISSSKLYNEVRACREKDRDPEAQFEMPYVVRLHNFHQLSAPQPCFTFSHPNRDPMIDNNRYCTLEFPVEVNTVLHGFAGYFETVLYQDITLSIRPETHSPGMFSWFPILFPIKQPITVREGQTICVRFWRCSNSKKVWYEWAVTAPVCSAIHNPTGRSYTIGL
Sequence of PRMT5-MEP50 enzyme complex (Q9BQA1 2-342 partner): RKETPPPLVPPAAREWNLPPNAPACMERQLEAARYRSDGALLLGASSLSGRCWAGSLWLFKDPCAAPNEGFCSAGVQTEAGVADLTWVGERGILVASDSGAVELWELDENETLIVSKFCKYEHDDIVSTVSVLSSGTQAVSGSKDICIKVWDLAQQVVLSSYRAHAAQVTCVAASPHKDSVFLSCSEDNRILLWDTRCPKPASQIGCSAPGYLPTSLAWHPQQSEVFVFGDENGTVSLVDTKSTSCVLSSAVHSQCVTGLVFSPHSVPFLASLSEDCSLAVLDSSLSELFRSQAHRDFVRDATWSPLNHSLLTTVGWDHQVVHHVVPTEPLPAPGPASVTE

| Compound | pIC50 |
| --- | --- |
| O=C1c2ccc(C#Cc3cccnc3)cc2OCCN1C[C@H](O)CN1CCc2ccccc2C1 [Example 227, 4-[(2R)-3-(3,4-dihydro-1H-isoquinolin-2-yl)-2-hydroxy-propyl]-8-[2-(3-pyridyl)ethynyl]-2,3-dihydro-1,4-benzoxazepin-5-one] | 7.00 to 9.00 |
| CC(O)C#Cc1ccc2c(c1)OCCN(C[C@H](O)CN1CCc3ccccc3C1)C2=O (stereo partly drawn) [Example 228, 4-[(2R)-3-(3,4-dihydro-1H-isoquinolin-2-yl)-2-hydroxy-propyl]-8-(3-hydroxybu-1-tynyl)-2,3-dihydro-1,4-benzoxazepin-5-one] | 7.00 to 9.00 |
| CNCC#Cc1ccc2c(c1)OCCN(C[C@H](O)CN1CCc3ccccc3C1)C2=O [Example 229, 4-[(2R)-3-(3,4-dihydro-1H-isoquinolin-2-yl)-2-hydroxy-propyl]-8-[3-(methylamino)pro-1-pynyl]-2,3-dihydro-1,4-benzoxazepin-5-one] | 6.00 to 7.00 |
| O=C1c2ccc(-c3cccnc3)cc2OCCN1C[C@H](O)CN1CCc2ccccc2C1 [Example 230, 4-[(2R)-3-(3,4-dihydro-1H-isoquinolin-2-yl)-2-hydroxy-propyl]-8-(3-pyridyl)-2,3-dihydro-1,4-benzoxazepin-5-one] | 7.00 to 9.00 |
| Cc1nn(C)cc1-c1ccc2c(c1)OCCN(C[C@H](O)CN1CCc3ccccc3C1)C2=O [Example 231, 4-[(2R)-3-(3,4-dihydro-1H-isoquinolin-2-yl)-2-hydroxy-propyl]-8-(1,3-dimethylpyrazol-4-yl)-2,3-dihydro-1,4-benzoxazepin-5-one] | 7.00 to 9.00 |
| Cn1cc(-c2ccc3c(c2)OCCN(C[C@H](O)CN2CCc4ccccc4C2)C3=O)cn1 [Example 232, 4-[(2R)-3-(3,4-dihydro-1H-isoquinolin-2-yl)-2-hydroxy-propyl]-8-(1-methylpyrazol-4-yl)-2,3-dihydro-1,4-benzoxazepin-5-one] | 6.00 to 7.00 |
| Cc1c(-c2ccc3c(c2)OCCN(C[C@H](O)CN2CCc4ccccc4C2)C3=O)cnn1C [Example 233, 4-[(2R)-3-(3,4-dihydro-1H-isoquinolin-2-yl)-2-hydroxy-propyl]-8-(1,5-dimethylpyrazol-4-yl)-2,3-dihydro-1,4-benzoxazepin-5-one] | 6.00 to 7.00 |
| CC1(C)CN(C[C@H](O)CN2CCc3ccccc3C2)C(=O)c2ccc(OC3CCN(CCO)CC3)nc2O1 [Example 234, 4-[(2R)-3-(3,4-dihydro-1H-isoquinolin-2-yl)-2-hydroxy-propyl]-8-[[1-(2-hydroxyethyl)-4-piperidyl]oxy]-2,2-dimethyl-3H-pyrido[3,2-f][1,4]oxazepin-5-one] | 7.00 to 9.00 |
| CC(C)(O)CN1CCC(Oc2ccc3c(c2)OCCN(C[C@H](O)CN2CCc4ccccc4C2)C3=O)CC1 [Example 238, 4-[(2R)-3-(3,4-dihydro-1H-isoquinolin-2-yl)-2-hydroxy-propyl]-8-[[1-(2-hydroxy-2-methyl-propyl)-4-piperidyl]oxy]-2,3-dihydro-1,4-benzoxazepin-5-one] | 6.00 to 7.00 |
| CCOCCN1CCC(Oc2ccc3c(c2)O[C@H](C)CN(C[C@H](O)CN2CCc4ccccc4C2)C3=O)CC1 [Example 240, (2R)-4-[(2R)-3-(3,4-dihydro-1H-isoquinolin-2-yl)-2-hydroxy-propyl]-8-[[1-(2-ethoxyethyl)-4-piperidyl]oxy]-2-methyl-2,3-dihydro-1,4-benzoxazepin-5-one] | 6.00 to 7.00 |
| C[C@@H]1CN(C[C@H](O)CN2CCc3ccccc3C2)C(=O)c2ccc(OC3CC4CCC(C3)N4CCO)cc2O1 (some centres unmarked) [Example 241] | 6.00 to 7.00 |
| C[C@@H]1CN(C[C@H](O)CN2CCc3ccccc3C2)C(=O)c2ccc(OC3CC4CCC(C3)N4CCF)cc2O1 (some centres unmarked) [Example 242] | 7.00 to 9.00 |
| COCCN1CCC(Oc2ccc3c(c2)OCCN(C[C@H](O)CN2CCc4ccccc4C2)C3=O)CC1 [Example 243] | 7.00 to 9.00 |
| CC(O)CN1CCC(Oc2ccc3c(c2)O[C@H](C)CN(C[C@H](O)CN2CCc4ccccc4C2)C3=O)CC1 (stereo partly drawn) [Example 245, (2R)-4-[(2R)-3-(3,4-dihydro-1H-isoquinolin-2-yl)-2-hydroxy-propyl]-8-[[1-(2-hydroxypropyl)-4-piperidyl]oxy]-2-methyl-2,3-dihydro-1,4-benzoxazepin-5-one] | 6.00 to 7.00 |
| CC(c1ccc2c(n1)OC(C)(C)CN(C[C@H](O)CN1CCc3ccccc3C1)C2=O)N1CCOCC1 (stereo partly drawn) [Example 246, 4-[(2R)-3-(3,4-dihydro-1H-isoquinolin-2-yl)-2-hydroxy-propyl]-2,2-dimethyl-8-(1-morpholinoethyl)-3H-pyrido[3,2-f][1,4]oxazepin-5-one] | 6.00 to 7.00 |
| CC(c1ccc2c(n1)OC(C)(C)CN(C[C@H](O)CN1CCc3ccccc3C1)C2=O)N1CC2(COC2)C1 (stereo partly drawn) [Example 247, 4-[(2R)-3-(3,4-dihydro-1H-isoquinolin-2-yl)-2-hydroxy-propyl]-2,2-dimethyl-8-[1-(2-oxa-6-azaspiro[3.3]heptan-6-yl)ethyl]-3H-pyrido[3,2-f][1,4]oxazepin-5-one] | 6.00 to 7.00 |
| CC(O)CN1CCC(Oc2ccc3c(n2)OC(C)(C)CN(C[C@H](O)CN2CCc4ccccc4C2)C3=O)CC1 (stereo partly drawn) [Example 248, 4-[(2R)-3-(3,4-dihydro-1H-isoquinolin-2-yl)-2-hydroxy-propyl]-8-[[1-(2-hydroxypropyl)-4-piperidyl]oxy]-2,2-dimethyl-3H-pyrido[3,2-f][1,4]oxazepin-5-one] | 7.00 to 9.00 |
| O=C1c2ccc(CN3CCn4cccc4C3)cc2OCCN1C[C@H](O)CN1CCc2ccccc2C1 [Example 249, 4-[(2R)-3-(3,4-dihydro-1H-isoquinolin-2-yl)-2-hydroxypropyl]-8-(3,4-dihydro-1H-pyrrolo[1,2-a]pyrazin-2-ylmethyl)-2,3-dihydro-1,4-benzoxazepin-5-one] | 6.00 to 7.00 |
| C[C@@H]1CN(C[C@H](O)CN2CCc3ccccc3C2)C(=O)c2ccc(CN3CC4(COC4)C3)cc2O1 [Example 250, (2R)-4-[(2R)-3-(3,4-dihydro-1H-isoquinolin-2-yl)-2-hydroxypropyl]-2-methyl-8-(2-oxa-6-azaspiro[3.3]heptan-6-ylmethyl)-2,3-dihydro-1,4-benzoxazepin-5-one] | 6.00 to 7.00 |
| O=C1c2ccc(CN3CCC4(CC3)COC4)cc2OCCN1C[C@H](O)CN1CCc2ccccc2C1 [Example 251, 4-[(2R)-3-(3,4-dihydro-1H-isoquinolin-2-yl)-2-hydroxypropyl]-8-(2-oxa-7-azaspiro[3.5]nonan-7-ylmethyl)-2,3-dihydro-1,4-benzoxazepin-5-one] | 6.00 to 7.00 |
| C[C@@H]1CN(C[C@H](O)CN2CCc3ccccc3C2)C(=O)c2ccc(CN3CCC4(CC3)COC4)cc2O1 [Example 252, (2R)-4-[(2R)-3-(3,4-dihydro-1H-isoquinolin-2-yl)-2-hydroxypropyl]-2-methyl-8-(2-oxa-7-azaspiro[3.5]nonan-7-ylmethyl)-2,3-dihydro-1,4-benzoxazepin-5-one] | 6.00 to 7.00 |
| O=C1c2ccc(O[C@@H]3CCN(CCO)C[C@H]3F)cc2OCCN1C[C@H](O)CN1CCc2ccccc2C1 [Example 253, dihydrochloride] | 6.00 to 7.00 |
| CC(O)CN1CC[C@@H](Oc2ccc3c(c2)OCCN(C[C@H](O)CN2CCc4ccccc4C2)C3=O)[C@H](F)C1 (stereo partly drawn) [Example 254, 4-[(2R)-3-(3,4-dihydro-1H-isoquinolin-2-yl)-2-hydroxy-propyl]-8-[[(3R,4R)-3-fluoro-1-(2-hydroxypropyl)-4-piperidyl]oxy]-2-methyl-2,3-dihydro-1,4-benzoxazepin-5-one divalnet hydrochloride] | 6.00 to 7.00 |
| C[C@@H]1CN(C[C@H](O)CN2CCc3ccccc3C2)C(=O)c2ccc(OC3CCN(CCO)C[C@H]3F)cc2O1 (stereo partly drawn) [Example 255, (2R)-4-[(2R)-3-[(2R)-3-(3,4-dihydro-1H-isoquinolin-2-yl)-2-hydroxy-propyl]-8-[[(3R,4R)-3-fluoro-1-(2-hydroxyethyl)-4-piperidyl]oxy]-2-methyl-2,3-dihydro-1,4-benzoxazepin-5-one dihydrochloride] | 6.00 to 7.00 |
| CC1(C)CN(C[C@H](O)CN2CCc3ccccc3C2)C(=O)c2ccc(OC3CCN(CCO)CC3(F)F)nc2O1 (stereo partly drawn) [Example 256, 8-[[3,3-difluoro-1-(2-hydroxyethyl)-4-piperidyl]oxy]-4-[(2R)-3-(3,4-dihydro-1H-isoquinolin-2-yl)-2-hydroxy-propyl]-2,2-dimethyl-3H-pyrido[3,2-f][1,4]oxazepin-5-one] | 6.00 to 7.00 |
| C[C@@H]1CN(C[C@H](O)CN2CCc3ccccc3C2)C(=O)c2ccc(OC3CCN(CCO)CC3)cc2O1 [Example 261, (2R)-4-[(2R)-3-(3,4-dihydro-1H-isoquinolin-2-yl)-2-hydroxy-propyl]-8-[[1-(2-hydroxyethyl)-4-piperidyl]oxy]-2-methyl-2,3-dihydro-1,4-benzoxazepin-5-one di hydrochloride] | 6.00 to 7.00 |
| COCCN1CCC(Oc2ccc3c(n2)OC(C)(C)CN(C[C@H](O)CN2CCc4ccccc4C2)C3=O)CC1 [Example 262, 4-[(2R)-3-(3,4-dihydro-1H-isoquinolin-2-yl)-2-hydroxy-propyl]-8-[[1-(2-methoxyethyl)-4-piperidyl]oxy]-2,2-dimethyl-3H-pyrido[3,2-f][1,4]oxazepin-5-one] | 6.00 to 7.00 |
| C[C@@H]1CN(C[C@H](O)CN2CCc3ccccc3C2)C(=O)c2ccc(O[C@H]3CCN(C)C3)cc2O1 [Example 264, (2R)-4-[(2R)-3-(3,4-dihydro-1H-isoquinolin-2-yl)-2-hydroxy-propyl]-2-methyl-8-[(3S)-1-methylpyrrolidin-3-yl]oxy-2,3-dihydro-1,4-benzoxazepin-5-one] | 6.00 to 7.00 |
| C[C@H](O)CN1CCC(Oc2ccc3c(c2)O[C@H](C)CN(C[C@H](O)CN2CCc4ccccc4C2)C3=O)CC1 [Example 267, (2R)-4-[(2R)-3-(3,4-dihydro-1H-isoquinolin-2-yl)-2-hydroxy-propyl]-8-[[1-[(2S)-2-hydroxypropyl]-4-piperidyl]oxy]-2-methyl-2,3-dihydro-1,4-benzoxazepin-5-one] | 6.00 to 7.00 |
